Measured values as given in patent publication US20210317140A1, “Heterocyclic Compounds and Methods of Use” (MEDIVATION TECHNOLOGIES, INC, priority 2013, published 2021).

How the values were obtained:
[1] = target: T1, BTK (Homo sapiens, UniProt Q06187); experiment: BTK kinase assay (HotSpot, 33P ATP); format: biochemical; details: for IC50: 10 dose IC50, 10 μM ATP; for BTK @ 0.01 μM (% Inh): 0.01 μM compound; for BTK @ 0.01 μM (% Inh) / BTK @ 0.1 μM (% Inh) / BTK @ 1 μM (% Inh): 10 μM ATP; for BTK @ 0.1 μM (% Inh): 0.1 μM compound; for BTK @ 1 μM (% Inh): 1 μM compound
T1 construct: purchased Reaction Biology Corporation
T1 sequence (Q06187 whole entry): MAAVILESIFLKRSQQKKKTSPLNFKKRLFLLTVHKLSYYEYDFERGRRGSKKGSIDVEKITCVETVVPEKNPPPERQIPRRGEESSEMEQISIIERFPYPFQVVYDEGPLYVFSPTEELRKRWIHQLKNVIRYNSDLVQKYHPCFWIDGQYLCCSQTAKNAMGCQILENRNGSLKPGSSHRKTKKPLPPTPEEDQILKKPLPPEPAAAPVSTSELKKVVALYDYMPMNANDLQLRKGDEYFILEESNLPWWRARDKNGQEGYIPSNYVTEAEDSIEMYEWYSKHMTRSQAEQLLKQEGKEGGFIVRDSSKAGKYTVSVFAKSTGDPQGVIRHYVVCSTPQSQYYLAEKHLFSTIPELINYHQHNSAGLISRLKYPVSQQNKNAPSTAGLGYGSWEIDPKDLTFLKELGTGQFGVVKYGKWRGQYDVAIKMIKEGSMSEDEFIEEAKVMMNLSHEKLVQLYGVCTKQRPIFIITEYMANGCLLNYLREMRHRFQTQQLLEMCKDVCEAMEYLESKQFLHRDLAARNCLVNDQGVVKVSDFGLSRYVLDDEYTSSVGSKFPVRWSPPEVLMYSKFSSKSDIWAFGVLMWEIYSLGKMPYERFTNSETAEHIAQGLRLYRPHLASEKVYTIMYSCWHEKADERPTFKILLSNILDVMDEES
Procedure, shortened: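 In 20 mM Hepes (pH 7.5) with 10 mM MgCl2, 1 mM EGTA, 0.1 mM Na3VO4, 2 mM DTT, 0.02% Brij35, 0.02 mg/mL BSA and 1% DMSO, kinase and substrate were exposed to ten compound doses for 15–20 min.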

[2] = target: T2, PI3Kδ (Homo sapiens, UniProt O00329); experiment: PI3Kδ kinase assay (HTRF, PIP3 detection); format: biochemical; details: for IC50: 10 dose IC50, 10 μM ATP; for PI3Kδ @ 0.01 μM (% Inh): 0.01 μM compound; for PI3Kδ @ 0.01 μM (% Inh) / PI3Kδ @ 0.1 μM (% Inh) / PI3Kδ @ 1 μM (% Inh): 10 μM ATP; for PI3Kδ @ 0.1 μM (% Inh): 0.1 μM compound; for PI3Kδ @ 1 μM (% Inh): 1 μM compound
T2 construct: purchased Reaction Biology Corporation
T2 sequence (O00329 whole entry): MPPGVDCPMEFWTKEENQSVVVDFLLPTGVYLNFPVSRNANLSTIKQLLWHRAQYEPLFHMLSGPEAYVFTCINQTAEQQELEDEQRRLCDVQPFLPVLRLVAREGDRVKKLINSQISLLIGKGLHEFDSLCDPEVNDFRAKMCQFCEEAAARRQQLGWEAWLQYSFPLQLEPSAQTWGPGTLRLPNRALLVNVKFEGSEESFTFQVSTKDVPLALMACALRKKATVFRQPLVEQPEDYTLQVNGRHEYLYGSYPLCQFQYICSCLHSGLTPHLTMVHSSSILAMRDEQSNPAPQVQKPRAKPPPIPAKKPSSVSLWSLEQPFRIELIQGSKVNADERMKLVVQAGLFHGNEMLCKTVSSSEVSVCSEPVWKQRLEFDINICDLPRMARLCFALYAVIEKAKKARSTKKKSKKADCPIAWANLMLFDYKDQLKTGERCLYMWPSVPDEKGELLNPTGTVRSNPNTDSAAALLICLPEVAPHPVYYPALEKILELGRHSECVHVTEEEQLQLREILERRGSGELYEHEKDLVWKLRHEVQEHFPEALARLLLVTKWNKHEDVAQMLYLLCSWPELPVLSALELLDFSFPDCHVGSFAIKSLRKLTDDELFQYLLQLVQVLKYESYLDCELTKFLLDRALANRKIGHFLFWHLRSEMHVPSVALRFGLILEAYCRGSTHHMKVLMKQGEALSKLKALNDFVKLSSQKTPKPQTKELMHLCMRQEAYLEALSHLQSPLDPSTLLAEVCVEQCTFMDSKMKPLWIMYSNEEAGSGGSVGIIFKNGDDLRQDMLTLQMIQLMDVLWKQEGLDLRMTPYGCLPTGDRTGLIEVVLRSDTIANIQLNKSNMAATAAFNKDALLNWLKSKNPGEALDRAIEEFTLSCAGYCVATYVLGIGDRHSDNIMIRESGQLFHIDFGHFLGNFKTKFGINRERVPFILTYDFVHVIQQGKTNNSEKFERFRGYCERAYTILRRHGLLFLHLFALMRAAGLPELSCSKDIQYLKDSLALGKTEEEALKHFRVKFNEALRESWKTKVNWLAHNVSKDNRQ
T2 sequence (P27986 whole entry partner): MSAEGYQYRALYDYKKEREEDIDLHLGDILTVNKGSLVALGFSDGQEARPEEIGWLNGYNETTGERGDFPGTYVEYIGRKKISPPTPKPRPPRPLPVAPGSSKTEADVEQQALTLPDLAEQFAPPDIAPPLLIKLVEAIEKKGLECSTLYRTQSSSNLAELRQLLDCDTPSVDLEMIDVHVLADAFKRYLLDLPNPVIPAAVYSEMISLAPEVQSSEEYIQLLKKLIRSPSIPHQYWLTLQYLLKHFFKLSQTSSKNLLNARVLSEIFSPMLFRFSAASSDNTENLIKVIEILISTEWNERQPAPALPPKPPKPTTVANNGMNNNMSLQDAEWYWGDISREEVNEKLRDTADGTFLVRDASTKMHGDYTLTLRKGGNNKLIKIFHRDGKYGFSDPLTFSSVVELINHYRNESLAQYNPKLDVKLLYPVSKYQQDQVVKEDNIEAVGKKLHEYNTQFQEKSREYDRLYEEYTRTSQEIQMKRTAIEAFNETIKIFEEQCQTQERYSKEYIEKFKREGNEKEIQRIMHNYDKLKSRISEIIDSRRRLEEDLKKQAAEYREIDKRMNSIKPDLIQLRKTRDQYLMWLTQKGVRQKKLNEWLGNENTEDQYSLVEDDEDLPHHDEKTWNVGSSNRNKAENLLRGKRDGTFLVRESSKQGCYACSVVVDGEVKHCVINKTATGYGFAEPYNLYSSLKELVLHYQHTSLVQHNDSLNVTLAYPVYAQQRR
Procedure, shortened: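 PIP3 formation read by loss of energy transfer as it displaces biotin-PIP3 from a Eu anti-GST/GST-PH/streptavidin-APC complex, calibrated against PIP3 standards.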

[3] = system: CD69+B220+ cells; experiment: B cell activation assay (IgD-stimulated splenocytes, CD69+B220+ cells by FACS); format: cell-based; details: IgD 3 μg/mL, 4 h; for CD69 @ 100 nM (% Inh): 100 nM compound, mouse splenocytes
Description: 1 Female mouse approximately 2 months old was euthanized with CO2 and the spleen removed. The tissue was homogenized with a polished glass microscope slide. The cells were collected in 5 mL complete medium (RPMI+10% FBS+pen/strep), placed in a 15 mL falcon tube and centrifuged at 500×g for 5 min. The supernatant was discarded and the pellet was resuspended in 3 mL of ACK lysis buffer (NH4Cl 0.17M, KHCO3 10 mM, EDTA-Na2 0.1 mM, pH 7.2), incubated at 37° C. for 5 min. 2 mL complete medium was added and the mixture centrifuged at 500×g for 5 min. The supernatant was discarded and the pellet resuspended in 1 mL complete medium. The mixture was passed through a […] cell strainer and collect in 50 mL falcon tube. Enough medium was added to have a total of 10 mL. The cells were counted and seeded in 24 or 48-well plate in 1 mL complete medium at 10^6 cells/mL. The plate was placed in a 37° C. incubator for 15 min. The cells were treated for 30 min at 37° C. with 100 nM test compound dissolved in 100% DMSO. 3 μL IgD (Accurate chemical and scientific corp.) was added at a final concentration of 3 μg/mL and the mixture incubated at 37° C. for 4 h. The cells were collected in 1.5 mL eppendorf tubes, centrifuged at 500×g for 5 min and then resuspended in 100 μL of PBS+2% FBS. The following antibodies were added: α-B220 PE (pharmingen #553090), α-CD69 APC (pharmingen #60689), live/dead fixable aqua dead cell stain kit (life technologies #L34957) all at 1:300, and the mixture incubated for 15 min at 4° C. in the dark. To this was added 900 μL of PBS+2% FBS and the mixture centrifuged at 500×g for 5 min. The supernatant was removed and the pellet resuspended in 300 μL of PBS+2% FBS and mixed well. The mixture was transferred to a cytometer tube. The samples were run in the FACS Canto II cytometer and quantified by the number of CD69+B220+ cells as a percentage of the total number of B220+ alive cells.

Row | SMILES | IC50 [1] [nM] | IC50 [2] [nM] | CD69 @ 100 nM (% Inh) [3] | BTK @ 0.01 μM (% Inh) [1] [% Inh] | BTK @ 0.1 μM (% Inh) [1] [% Inh] | PI3Kδ @ 0.01 μM (% Inh) [2] [% Inh] | PI3Kδ @ 0.1 μM (% Inh) [2] [% Inh] | CD69 @ 100 nM (% Inh) ([3]; 0.1 µM) | BTK @ 1 μM (% Inh) [1] [% Inh] | PI3Kδ @ 1 μM (% Inh) [2] [% Inh] | IC50 ([3]; Mus musculus, Splenocyte) [nM]
1 | COc1ccc(-c2nn(C3CCc4ccccc4C3)c3ncnc(N)c23)cn1 (racemic) [compound 15, 3-(6-methoxypyridin-3-yl)-1-(1,2,3,4-tetrahydronaphthalen-2-yl)-1H-pyrazolo[3,4-d]pyrimidin-4-amine] | 565 | 67 | −0.75 ± 6.93 (n = 3) % Inh |  |  |  |  |  |  |  | 
2 | C=CC(=O)N1CC(n2nc(-c3cc(O)cc(F)c3)c3c(N)ncnc32)Cc2cc(C)ccc21 (single isomer, unassigned) [31a, 1-(3-(4-amino-3-(3-fluoro-5-hydroxyphenyl)-1H-pyrazolo[3,4-d]pyrimidin-1-yl)-6-methyl-3,4-dihydroquinolin-1(2H)-yl)prop-2-en-1-one] | 9.5 | 27.7 |  | 67.39 | 93.84 | 33.04 | 68.13 | 15.47 ± 13.75 (n = 8) % Inh |  |  | 
3 | Nc1ncnc2c1c(-c1ccc(Br)c(O)c1)nn2C1CCc2ccccc21 (single isomer, unassigned) [36a, 5-[4-amino-1-(2,3-dihydro-1H-inden-1-yl)-1H-pyrazolo[3,4-d]pyrimidin-3-yl]-2-bromophenol] | 190 | 1 | 1.63 ± 7.31 (n = 3) % Inh |  | 26.99 |  | 34.17 |  | 72.83 | 76.31 | 
4 | COc1ccc(-c2nn(C3CCc4ccccc4C3)c3ncnc(N)c23)cc1F (single isomer, unassigned) [Compound No. 14b, 3-(3-fluoro-4-methoxyphenyl)-1-(1,2,3,4-tetrahydronaphthalen-2-yl)-1H-pyrazolo[3,4-d]pyrimidin-4-amine] | 1590 | 25.4 | 24.20 ± 12.24 (n = 6) % Inh |  |  |  |  |  |  |  | 
5 | Nc1ncnc2c1c(-c1ccc3[nH]cnc3c1)nn2C1CCc2ccccc2C1 (single isomer, unassigned) [Compound No. 19a, 3-(1H-benzo[d]imidazol-5-yl)-1-(1,2,3,4-tetrahydronaphthalen-2-yl)-1H-pyrazolo[3,4-d]pyrimidin-4-amine] | 1210 | 14.8 |  |  |  |  |  | 24.62 ± 10.79 (n = 6) % Inh |  |  | 
6 | Nc1ncnc2c1c(-c1ccc3[nH]cnc3c1)nn2C1CCc2ccccc2C1 (single isomer, unassigned) [Compound No. 19b, 3-(1H-benzo[d]imidazol-5-yl)-1-(1,2,3,4-tetrahydronaphthalen-2-yl)-1H-pyrazolo[3,4-d]pyrimidin-4-amine] | 1270 | 6.4 |  |  |  |  |  | 36.67 ± 6.35 (n = 6) % Inh |  |  | 
7 | Nc1ncnc2c1c(-c1cc(O)cc(Cl)c1)nn2C1Cc2ccccc2C1 [Compound No. 67, 3-[4-amino-1-(2,3-dihydro-1H-inden-2-yl)-1H-pyrazolo[3,4-d]pyrimidin-3-yl]-5-chlorophenol] | 142 | 4.1 | 65.11 ± 18.09 (n = 6) % Inh |  | 43.63 |  | 84.5 |  | 87.64 | 90.92 | 109 ± 57
8 | Nc1ncnc2c1c(-c1cc(O)cc(F)c1)nn2C1CCCc2ccc(F)cc21 (centres unmarked) [compound 41, 3-[4-amino-1-(7-fluoro-1,2,3,4-tetrahydronaphthalen-1-yl)-1H-pyrazolo[3,4-d]pyrimidin-3-yl]-5-fluorophenol] |  |  |  |  | 4.89 |  | 80.15 |  |  |  | 
9 | Nc1ncnc2c1c(-c1cc(O)cc(F)c1)nn2C1Cc2cc(F)ccc2C1=O (centres unmarked) [compound 51, 2-[4-amino-3-(3-fluoro-5-hydroxyphenyl)-1H-pyrazolo[3,4-d]pyrimidin-1-yl]-5-fluoro-2,3-dihydro-1H-inden-1-one] | 422 | 65.7 |  |  | 41.05 |  | 73.20 |  | 82.76 | 98.33 | 
10 | Nc1ncnc2c1c(-c1cc(O)c(F)c(F)c1)nn2C1Cc2cc(F)ccc2C1=O (centres unmarked) [compound 127, 2-[4-amino-3-(3,4-difluoro-5-hydroxyphenyl)-1H-pyrazolo[3,4-d]pyrimidin-1-yl]-5-fluoro-2,3-dihydro-1H-inden-1-one] |  |  |  | 9.24 | 21.87 | 16.23 | 51.48 |  |  |  | 
11 | Nc1ncnc2c1c(-c1cc(O)c(F)c(F)c1)c(Cl)n2C1Cc2ccccc2C1 [compound 134, 5-[4-amino-6-chloro-7-(2,3-dihydro-1H-inden-2-yl)-7H-pyrrolo[2,3-d]pyrimidin-5-yl]-2,3-difluorophenol] |  |  |  | 17.28 | 74.7 | −6.1 | 56.02 |  |  |  | 
12 | N#Cc1c(-c2cc(O)c(F)c(F)c2)c2c(N)ncnc2n1C1Cc2ccccc2C1 [compound 135, 4-amino-5-(3,4-difluoro-5-hydroxyphenyl)-7-(2,3-dihydro-1H-inden-2-yl)-7H-pyrrolo[2,3-d]pyrimidine-6-carbonitrile] |  |  |  | 51.3 | 88.59 | 51.74 | 84.33 |  |  |  | 
13 | Nc1ncnc2c1c(-c1cc(O)c(F)c(F)c1)c(F)n2C1Cc2ccccc2C1 [compound 136, 5-[4-amino-7-(2,3-dihydro-1H-inden-2-yl)-6-fluoro-7H-pyrrolo[2,3-d]pyrimidin-5-yl]-2,3-difluorophenol] |  |  |  | 72.51 | 93.64 | 38.49 | 80.15 |  |  |  | 
14 | Nc1ncnc2c(C3Cc4ccccc4C3)cn(-c3cc(O)c(F)c(F)c3)c12 [compound 137, 5-[4-amino-7-(2,3-dihydro-1H-inden-2-yl)-5H-pyrrolo[3,2-d]pyrimidin-5-yl]-2,3-difluorophenol] |  |  |  | 87.65 | 96.31 | 6.28 | 45.54 |  |  |  | 
15 | NCc1ccc(-c2nn(C3Cc4ccccc4C3)c3ncnc(N)c23)cc1 [compound 138, 3-[4-(aminomethyl)phenyl]-1-(2,3-dihydro-1H-inden-2-yl)-1H-pyrazolo[3,4-d]pyrimidin-4-amine] |  |  |  | −7.89 | −6.05 | −2.71 | 5.54 |  |  |  | 
16 | Nc1ccc2c(c1)CC(n1nc(-c3cc(O)c(F)c(F)c3)c3c(N)ncnc31)C2 (centres unmarked) [compound 139, 5-[4-amino-1-(5-amino-2,3-dihydro-1H-inden-2-yl)-1H-pyrazolo[3,4-d]pyrimidin-3-yl]-2,3-difluorophenol] |  |  |  | 80.96 | 95.07 | 65.26 | 90.95 |  |  |  | 
17 | Nc1nccn2c(C3Cc4ccccc4C3)nc(-c3cc(O)c(F)c(F)c3)c12 [compound 140, 5-[8-amino-3-(2,3-dihydro-1H-inden-2-yl)imidazo[1,5-a]pyrazin-1-yl]-2,3-difluorophenol] |  |  |  | 83.98 | 96.04 | 31.54 | 79.18 |  |  |  | 
